Data set [1] has as its system Rattus norvegicus. Description: Compound was measured for elevated levels of GH release in infant rats after administration subcutaneously at 300 ug/kg. The format is functional, organism-based.
The nature of data set [2]: Compound was evaluated for half-life in humans. The class given is ADME, organism-based. The following applies: human, in vivo.
Data set [3] is described as follows: Clearance rate is evaluated rats. The class given is ADME, organism-based. Conditions: rat, in vivo; read-out: Clearance rate.
Data set [4] deals with Canis familiaris. The data set can be described thus: Compound was tested for minimum effective dose in dogs through iv dose. The format is functional. The following applies: Canis lupus familiaris.
The nature of data set [5]: Compound was evaluated for oral bioavailability in human. The class given is ADME, organism-based. Conditions: in vivo.
Data set [6] is described as follows: Half-life was evaluated in rats. The format is ADME, organism-based. Conditions: rat, in vivo.
Data set [7] can be described thus: Compound was evaluated for percentage of Oral bioavailability in rats. The class given is ADME, organism-based. The following applies: rat, in vivo, read-out: Bioavailabiility.
The species named for data set [8] is Rattus norvegicus. The data set can be described thus: In vitro efficacy was evaluated for growth hormone release.
Data set [9] is filed under the species Rattus norvegicus. The data set can be described thus: compound was evaluated for GH release in the rat pituitary cell culture assay. The following applies: Pituitary gland cell. The class given is functional.
The target in data set [10] is T1, Oxytocin receptor (Homo sapiens, UniProt P30559).
T1 sequence (P30559 whole entry): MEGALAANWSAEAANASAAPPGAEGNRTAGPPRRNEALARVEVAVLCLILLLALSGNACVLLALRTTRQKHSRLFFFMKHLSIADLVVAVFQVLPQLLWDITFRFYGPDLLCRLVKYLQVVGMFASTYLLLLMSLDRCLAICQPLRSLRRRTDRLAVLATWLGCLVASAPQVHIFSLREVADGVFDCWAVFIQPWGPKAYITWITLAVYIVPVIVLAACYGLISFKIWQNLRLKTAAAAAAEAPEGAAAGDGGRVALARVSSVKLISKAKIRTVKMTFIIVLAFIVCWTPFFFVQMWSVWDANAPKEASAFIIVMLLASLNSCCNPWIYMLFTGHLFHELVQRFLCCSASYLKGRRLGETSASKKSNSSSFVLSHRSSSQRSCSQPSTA
Description: Antagonistic activity against Oxytocin receptor. The format is functional.

Data set [11] in a line: The intrinsic potency studied extensively in animals. The class given is functional.
Data set [12] has as its system Canis familiaris. The data set can be described thus: Loss of body weight in dog is evaluated after compound was administered perorally to dog at a dose 5 mg/kg, once daily (control (wt) = 1.13+/-0.19). The format is functional, Canis lupus familiaris. The following applies: route oral.
Data set [13] is filed under the species Sus scrofa. The data set can be described thus: Compound was measured for IGF-1 increases in swine on days 4, 7, 10, and 14 approximately. The format is functional.
Data set [14] is filed under the species Sus scrofa. Description: Compound was measured for elevated mean plasma IGF-1 (insulin like growth factor) concentrations in Swine. The class given is functional, organism-based.
The species named for data set [15] is Rattus norvegicus. Description: (§1) compound was evaluated for GH release in rat. The format is functional.
Data set [16] is filed under the species Canis familiaris. Description: Compound is evaluated for elevated GH in beagles with peroral dose. The class given is functional. The following applies: Canis lupus familiaris, po.
The species entered for data set [17] is Rattus norvegicus. Description: Compound was evaluated for binding affinity, which binds with high affinity to membranes isolated from rat hypothalamus. The class given is functional.
Data set [18] can be described thus: Oral bioavailability measured in dogs. The format is ADME, organism-based, Canis lupus familiaris. Conditions: dog, in vivo.
For data set [19], the species on record is Rattus norvegicus. The data set can be described thus: In Vitro evaluation for growth hormone release from the pituitary incubates. The class given is functional.
Data set [20] in a line: Half-life period measured in dogs. The class given is ADME, organism-based, Canis lupus familiaris. The following applies: dog, in vivo.
Data set [21] has as its system Canis familiaris. The data set can be described thus: Compound is evaluated for elevated GH in beagles with intravenous dose. The format is functional. Conditions: Canis lupus familiaris.
For data set [22], the species on record is Sus scrofa. Description: Limited capacity to porcine pituitary membranes was evaluated. The format is functional.
For data set [23], the species on record is Rattus norvegicus. The data set can be described thus: The concentration of binding sites was evaluated. The class given is functional.
The subject of data set [24] is Rattus norvegicus. The data set can be described thus: Compound was tested for effective dose rquired for GH release following iv administration to 4-week old anesthetized Sprague-Dawley rats. The class given is functional.
Data set [25] is filed under the species Rattus norvegicus. The description is as §1. The class given is functional, organism-based.
For data set [26], the species on record is Rattus norvegicus. Description: compound was evaluated for GH release in the rat; 10-30 ng/mL. The format is functional, organism-based.
Data set [27] relates to Rattus norvegicus. The data set can be described thus: Compound was measured as maximal GH release which showed iv potency and efficacy. The class given is functional, organism-based.
Data set [28] can be described thus: Clearance rate was evaluated in rats. The format is ADME, organism-based. Conditions: rat, in vivo; read-out: Clearance rate.
For data set [29], the species on record is Rattus norvegicus. The data set can be described thus: compound was evaluated for GH release in the rat pituitary cell. The format is functional. The following applies: Pituitary gland cell.

Where a SMILES comes first, the peptide text is derived from it. [ ]: non-standard residue; d: D form. dTrp(2-Me) = Cc1[nH]c2ccccc2c1C[C@@H](N)C(=O)O; Trp(2-Me) = Cc1[nH]c2ccccc2c1C[C@H](N)C(=O)O; d2Nal = N[C@H](Cc1ccc2ccccc2c1)C(=O)O; GABA = NCCCC(=O)O

In turn, `Cc1[nH]c2ccccc2c1C[C@H](NC(=O)[C@@H](Cc1c(C)[nH]c2ccccc12)NC(=O)[C@@H](Cc1c(C)[nH]c2ccccc12)NC(=O)CCCN)C(=O)N[C@@H](CCCCN)C(N)=O` (H-[GABA][dTrp(2-Me)][dTrp(2-Me)][Trp(2-Me)]K-NH2) showed a Concentration in data set [1] of 200 ng/mL.
Turning to `C[C@H](NC(=O)[C@@H](Cc1c[nH]c2ccccc12)NC(=O)[C@@H](N)Cc1c[nH]cn1)C(=O)N[C@@H](Cc1c[nH]c2ccccc12)C(=O)N[C@H](Cc1ccccc1)C(=O)N[C@@H](CCCCN)C(N)=O` (H-H[dW]AW[dF]K-NH2), the half-life in data set [2] is 20 min; in data set [6], 22 min. Besides, the clearance in data set [3] is 25 mL/min/kg. The same molecule had an MED in data set [4] of 0.01 mg/kg. This molecule also showed a bioavailability in data set [5] of 0.3%.
As to `CC(C)(N)CC(=O)N[C@@H]1CCc2c(ccc3ccccc23)N(Cc2ccc(-c3ccccc3-c3nn[nH]n3)cc2)C1=O`, in data set [7], the bioavailability is < 5%. Also, the EC50 in data set [8] came to 4 nM.
Consider `CC(C)(CC(=O)N[C@@H]1CCc2ccccc2N(Cc2ccc(-c3ccccc3C(N)=O)cc2)C1=O)NC[C@H](O)CO`, for which, in [8], the EC50 was determined as 3 nM.
Regarding `C[C@@H](O)CNC(C)(C)CC(=O)N[C@@H]1CCc2ccccc2N(Cc2ccc(-c3ccccc3-c3nn[nH]n3)cc2)C1=O` [L-692585], in data set [8], a half-maximal effect (EC50) was put at 3 nM.
In turn, `CC(C)(N)C(=O)N[C@H](Cc1c[nH]c2ccccc12)C(=O)N1CCC[C@]2(CC(=O)c3ccccc3O2)C1` had an EC50 in data set [9] of 1.8 nM.
`CC1(C)C2CCC1(CS(=O)(=O)N1CCC3(CCc4ccccc43)CC1)C(NC(=O)C1CCCNC1)C2` [L-368112] displayed an IC50 in [10] of 68 nM. The EC50 in [8] is 300 nM.
`CC(C)(N)C(=O)N[C@H](CCCc1ccccc1)C(=O)N1CCC2(CC1)CN(S(C)(=O)=O)c1ccccc12` returned an EC50 in data set [11] of 1.5 nM. In data set [12], the Body weight worked out at 0.21 kg. In addition, in data set [13], the Increase was 60%. The molecule also had a Plasma concentration in data set [14] of 62%.
With `CCOC(=O)[C@]1(Cc2ccccc2)CCCN(C(=O)[C@@H](Cc2c[nH]c3ccccc23)NC(=O)C(C)(C)N)C1`, the EC50 in [9] stood at 1.6 nM.
In data set [9], `O=C(NC(Cc1c[nH]c2ccccc12)C(=O)N1CCC2(CCc3ccccc32)CC1)NC1CN2CCC1CC2` (configuration not stated) [SPIROPIPERIDINE] had an IC50 of 50 nM.
Consider `Cc1[nH]c2ccccc2c1C[C@@H](NC(=O)[C@@H](N)Cc1c[nH]cn1)C(=O)N[C@@H](C)C(=O)N[C@@H](Cc1c[nH]c2ccccc12)C(=O)N[C@H](Cc1ccccc1)C(=O)N[C@@H](CCCCN)C(N)=O` [EXAMORELIN] (H-H[dTrp(2-Me)]AW[dF]K-NH2), for which the Activity in [15] came out at 104 ng/mL.
With `CC(C)(N)C(=O)N[C@H](COCc1ccccc1)C(=O)N1CCC2(CC1)CN(S(C)(=O)=O)c1ccccc12` [IBUTAMOREN], the figures for the MED in data set [16] and in data set [21] were 0.125 mg/kg and 0.025 mg/kg, respectively. The molecule further yielded a Kd in data set [17] of 0.17 nM. Moreover, the bioavailability in data set [18] is > 60%. In data set [19], this molecule displayed an EC50 of 1.3 nM. For the same molecule, in data set [20], the half-life was 282 min. Also, the Bmax (fM (mg of protein)-1) in [22] was determined as 8. Besides, in data set [23], the Bmax came out at 8 fmol/mg.
Turning to `CN(C)S(=O)(=O)c1ccc2c(c1)CN(C(=O)[C@@H](Cc1c[nH]c3ccccc13)NC(=O)C(C)(C)N)CC2`, it took a dose of 3 mg/kg to reach the 50% effect level in data set [24] (ED50). In data set [9], this molecule yielded an EC50 of 30 nM.
In turn, `C[C@H](N)C(=O)N[C@@H](Cc1c[nH]cn1)C(=O)N[C@H](Cc1ccc2ccccc2c1)C(=O)N[C@@H](C)C(=O)N[C@@H](Cc1c[nH]c2ccccc12)C(=O)N[C@H](Cc1ccccc1)C(=O)N[C@@H](CCCCN)C(N)=O` (H-AH[d2Nal]AW[dF]K-NH2) showed an EC50 in data set [25] of 6 nM.
Consider `C[C@H](NC(=O)[C@H](Cc1c[nH]c2ccccc12)NC(=O)[C@@H](N)Cc1ccc(O)cc1)C(=O)N[C@@H](Cc1c[nH]c2ccccc12)C(=O)N[C@H](Cc1ccccc1)C(N)=O`, for which, in data set [26], the Concentration was 30 ng/mL.
Turning to `C[C@@H]1CNC(C)(C)CC(=O)N[C@@H]2CCc3ccccc3N(Cc3ccc(cc3)-c3ccccc3C(=O)NCCCC(=O)O1)C2=O`, the midpoint of the response in data set [9], the EC50, lay at 21 nM.
Take `C[C@H](NC(=O)[C@@H](Cc1c[nH]c2ccccc12)NC(=O)CCc1c[nH]cn1)C(=O)N[C@@H](Cc1c[nH]c2ccccc12)C(=O)N[C@H](Cc1ccccc1)C(=O)N[C@H](CO)CCCCN`: the EC50 in data set [27] is 5 nM. For the same molecule, the clearance in data set [28] came to 39 mL/min/kg. The molecule further came in with a half-life in [6] of 11 min.
`CSCC[C@@H](NC(=O)[C@H](Cc1ccccc1)NC(=O)CNC(=O)[C@H](Cc1c[nH]c2ccccc12)NC(=O)[C@@H](N)Cc1ccc(O)cc1)C(N)=O` registered a Concentration in data set [29] of 10 µg/mL.

The values are drawn from ChEMBL document CHEMBL1131057, “Peptidomimetic growth hormone secretagogues. Design considerations and therapeutic potential” (J Med Chem, 1998).
